Our source for the IC50 values is patent publication US20250129078A1, “ERBB2 INHIBITORS” (Cogent Biosciences, Inc., priority 2023, published 2025).

Where only a bound is given, the exact number is not on record here.

One assay addresses ErbB2 V777L (Homo sapiens (Human), UniProt P04626, V777L). The experiment in a line: ErbB enzyme assay (CisBio HTRF-KinEASE-TK), ErbB2 V777L. In kind it is biochemical. The gist of the method:
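HTRF KinEASE-TK tyrosine-kinase read-out of substrate phosphorylation after a final 1 h at ambient temperature, from the 655/620 nm emission ratio.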
On the technique in general: TR-FRET usually uses a lanthanide donor and a delayed reading to cut background.

In the next assay the target is EGFR WT (Homo sapiens (Human), UniProt P00533). Briefly: ErbB enzyme assay (CisBio HTRF-KinEASE-TK), EGFR WT. In kind it is biochemical. The conditions noted are these: ATP at Km (25 μM), 1 h incubation. The gist of the method:
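HTRF KinEASE-TK kinase assay, 1 h at ambient temperature with three-fold serial compound dilutions, then 1 h detection with Sa-XL665/TK-Ab-Cryptate. IC50 is the 50 POC point of a 4-parameter logistic fit.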

Chain of ErbB2 V777L (P04626 23-1255 V777L): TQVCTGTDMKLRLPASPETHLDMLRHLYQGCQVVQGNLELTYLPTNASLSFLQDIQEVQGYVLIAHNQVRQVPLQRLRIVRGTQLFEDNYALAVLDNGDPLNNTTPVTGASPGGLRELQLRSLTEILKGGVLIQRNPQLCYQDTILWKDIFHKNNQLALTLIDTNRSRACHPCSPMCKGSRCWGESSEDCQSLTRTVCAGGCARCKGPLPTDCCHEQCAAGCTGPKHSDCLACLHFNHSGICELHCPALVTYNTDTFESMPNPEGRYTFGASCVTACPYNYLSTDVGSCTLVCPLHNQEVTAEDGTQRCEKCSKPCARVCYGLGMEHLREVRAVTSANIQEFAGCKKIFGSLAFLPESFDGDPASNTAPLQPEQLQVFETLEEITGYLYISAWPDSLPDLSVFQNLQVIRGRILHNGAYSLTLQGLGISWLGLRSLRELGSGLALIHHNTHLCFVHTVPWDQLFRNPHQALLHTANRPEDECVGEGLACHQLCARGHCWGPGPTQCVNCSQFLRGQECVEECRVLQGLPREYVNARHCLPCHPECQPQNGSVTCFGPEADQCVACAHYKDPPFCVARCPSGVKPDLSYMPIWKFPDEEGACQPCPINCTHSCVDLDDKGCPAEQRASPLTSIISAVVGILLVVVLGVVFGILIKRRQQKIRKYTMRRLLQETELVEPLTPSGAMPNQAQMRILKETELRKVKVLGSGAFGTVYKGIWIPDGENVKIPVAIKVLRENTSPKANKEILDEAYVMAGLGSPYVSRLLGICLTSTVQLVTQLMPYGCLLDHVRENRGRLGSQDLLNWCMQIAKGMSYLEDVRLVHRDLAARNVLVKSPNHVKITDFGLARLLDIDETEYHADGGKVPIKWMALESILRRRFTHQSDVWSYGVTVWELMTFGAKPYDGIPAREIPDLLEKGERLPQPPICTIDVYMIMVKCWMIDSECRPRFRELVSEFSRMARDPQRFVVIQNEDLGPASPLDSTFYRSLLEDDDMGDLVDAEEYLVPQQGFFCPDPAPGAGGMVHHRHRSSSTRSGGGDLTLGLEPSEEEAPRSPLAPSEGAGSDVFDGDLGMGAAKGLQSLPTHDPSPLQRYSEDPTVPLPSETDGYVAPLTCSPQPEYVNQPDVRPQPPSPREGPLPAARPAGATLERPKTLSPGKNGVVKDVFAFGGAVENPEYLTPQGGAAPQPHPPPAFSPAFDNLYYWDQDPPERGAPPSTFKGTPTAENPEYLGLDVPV
Chain of EGFR WT (P00533 25-1210): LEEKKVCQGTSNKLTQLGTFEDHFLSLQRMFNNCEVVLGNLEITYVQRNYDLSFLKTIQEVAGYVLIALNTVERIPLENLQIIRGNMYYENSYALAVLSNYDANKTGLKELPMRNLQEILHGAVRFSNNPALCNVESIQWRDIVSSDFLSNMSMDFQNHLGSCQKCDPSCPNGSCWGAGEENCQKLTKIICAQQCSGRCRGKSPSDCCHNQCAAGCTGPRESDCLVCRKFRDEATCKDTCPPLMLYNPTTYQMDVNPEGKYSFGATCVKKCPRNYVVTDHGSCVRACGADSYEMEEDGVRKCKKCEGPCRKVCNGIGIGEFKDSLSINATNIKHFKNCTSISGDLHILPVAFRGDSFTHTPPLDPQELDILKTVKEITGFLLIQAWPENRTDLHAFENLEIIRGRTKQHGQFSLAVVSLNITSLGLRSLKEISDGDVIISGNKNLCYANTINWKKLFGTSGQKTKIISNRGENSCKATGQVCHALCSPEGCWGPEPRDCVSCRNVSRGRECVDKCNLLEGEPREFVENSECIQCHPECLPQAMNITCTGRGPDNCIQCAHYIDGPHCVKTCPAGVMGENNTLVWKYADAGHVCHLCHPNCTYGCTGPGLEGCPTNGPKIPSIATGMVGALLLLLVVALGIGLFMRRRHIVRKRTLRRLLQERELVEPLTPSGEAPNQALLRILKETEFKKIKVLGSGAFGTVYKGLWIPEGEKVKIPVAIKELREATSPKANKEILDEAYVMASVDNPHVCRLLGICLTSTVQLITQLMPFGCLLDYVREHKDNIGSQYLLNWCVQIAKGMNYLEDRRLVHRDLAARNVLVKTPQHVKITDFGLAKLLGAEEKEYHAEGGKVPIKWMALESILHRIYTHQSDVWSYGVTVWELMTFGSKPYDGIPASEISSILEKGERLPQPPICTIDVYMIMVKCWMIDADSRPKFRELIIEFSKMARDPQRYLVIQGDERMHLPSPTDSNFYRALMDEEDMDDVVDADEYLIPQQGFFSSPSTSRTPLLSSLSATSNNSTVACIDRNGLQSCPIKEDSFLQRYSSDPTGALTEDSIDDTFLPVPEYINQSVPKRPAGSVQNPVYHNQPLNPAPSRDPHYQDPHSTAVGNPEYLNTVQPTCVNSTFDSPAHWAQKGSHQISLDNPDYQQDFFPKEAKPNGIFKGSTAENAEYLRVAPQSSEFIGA

By IC50 is commonly meant the point on the concentration scale where inhibition reaches its midpoint. Lower therefore signals greater potency in that assay. Turning to `C=CC(=O)NC1CCN(c2ccc3ncnc(Nc4ccc(Oc5ccc6c(c5)nnn6C)c(C)c4)c3n2)CC1` [Compound 304, N-(1-(4-((3-methyl-4-((1-methyl-1H-benzo[d][1,2,3]triazol-5-yl)oxy)phenyl)amino)pyrido[3,2-d]pyrimidin-6-yl)piperidin-4-yl)acrylamide], the IC50 against ErbB2 V777L and against EGFR WT was 100 to 500 nM in each case.

Take `C=CC(=O)N1CCN(c2ncc3ncnc(Nc4ccc(Oc5ccc6c(c5)nnn6C)c(C)c4)c3n2)[C@@H](C)C1` [Compound 18, (S)-1-(3-methyl-4-(8-((3-methyl-4-((1-methyl-1H-benzo[d][1,2,3]triazol-5-yl)oxy)phenyl)amino)pyrimido[5,4-d]pyrimidin-2-yl)piperazin-1-yl)prop-2-en-1-one 2,2,2-trifluoroacetate]: the IC50 at ErbB2 V777L was in the range of 50 to 100 nM; against EGFR WT, 100 to 500 nM.

As to `C=CC(=O)N1C2C=C(c3ccc4ncnc(Nc5ccc(Oc6ccc7c(c6)nnn7C)c(C)c5F)c4n3)CC1CCC2` (stereo not shown) [Compound 414, 1-(3-(4-((2-fluoro-3-methyl-4-((1-methyl-1H-benzo[d][1,2,3]triazol-5-yl)oxy)phenyl)amino)pyrido[3,2-d]pyrimidin-6-yl)-9-azabicyclo[3.3.1]non-2-en-9-yl)prop-2-en-1-one], the IC50 on ErbB2 V777L and against EGFR WT was 500 to 1000 nM each time.

`C=CC(=O)N1C2CCC1CN(c1ncc3ncnc(Nc4ccc(Oc5cnc6c(c5)ncn6C)c(C)c4)c3n1)C2` [Compound 134, 1-(3-(8-((3-methyl-4-((3-methyl-3H-imidazo[4,5-b]pyridin-6-yl)oxy)phenyl)amino)pyrimido[5,4-d]pyrimidin-2-yl)-3,8-diazabicyclo[3.2.1]octan-8-yl)prop-2-en-1-one]: the IC50 against ErbB2 V777L was in the range of 50 to 100 nM; at EGFR WT, 100 to 500 nM.

`C=CC(=O)N1CCN(c2ncc3ncnc(Nc4cc(C)c(Oc5ccc6c(c5)ncn6C(F)F)cc4OC)c3n2)CC1` [Compound 37, 1-(4-(8-((4-((1-(difluoromethyl)-1H-benzo[d]imidazol-5-y1)oxy)-2-methoxy-5-methylphenyl)amino)pyrimido[5,4-d]pyrimidin-2-yl)piperazin-1-yl)prop-2-en-1-one 2,2,2-trifluoroacetate]: the results for the IC50 against ErbB2 V777L and against EGFR WT were 50 to 100 nM and 100 to 500 nM, respectively.

Consider `C=CC(=O)N1CC2(CC(N(C)c3ncc4ncnc(Nc5ccc(Oc6ccc7c(c6)nnn7C)c(C)c5)c4n3)C2)C1` [Compound 124, 1-(6-(methyl(8-((3-methyl-4-((1-methyl-1H-benzo[d][1,2,3]triazol-5-yl)oxy)phenyl)amino)pyrimido [5,4-d]pyrimidin-2-yl)amino)-2-azaspiro[3.3]heptan-2-yl)prop-2-en-1-one], for which the figures for the IC50 on ErbB2 V777L and on EGFR WT were 50 to 100 nM and 100 to 500 nM, respectively.

As to `C=CC(=O)N[C@H]1CCCCN(c2ncc3ncnc(Nc4ccc(Oc5ccc6c(c5)nnn6C)c(C)c4F)c3n2)C1` [Compound 173, (S)-N-(1-(8-((2-fluoro-3-methyl-4-((1-methyl-1H-benzo[d][1,2,3]triazol-5-yl)oxy)phenyl)amino)pyrimido[5,4-d]pyrimidin-2-yl)azepan-3-yl)acrylamide], the half-inhibitory concentration (IC50) on ErbB2 V777L lay in the range of 50 to 100 nM; on EGFR WT it was 100 to 500 nM.

Consider `C=CC(=O)N1CCCC(c2ccc3ncnc(Nc4ccc(Oc5ccc6c(c5)nnn6C)c(C)c4)c3n2)C1` (stereo not shown) [Compound 398, 1-(3-(4-((3-methyl-4-((1-methyl-1H-benzo[d][1,2,3]triazol-5-yl)oxy)phenyl)amino)pyrido[3,2-d]pyrimidin-6-yl)piperidin-1-yl)prop-2-en-1-one], for which the 50% inhibitory concentration (IC50) against ErbB2 V777L lay in the range of 50 to 100 nM; on EGFR WT, 100 to 500 nM.

In the case of `C=CC(=O)N1CCN(c2ccc3ncnc(Nc4ccc(Oc5cc(F)c6c(c5)nnn6C)c(C)c4F)c3n2)CC1` [Compound 91, 1-(4-(4-((2-fluoro-4-((7-fluoro-1-methyl-1H-benzo[d][1,2,3]triazol-5-yl)oxy)-3-methylphenyl)amino)pyrido[3,2-d]pyrimidin-6-yl)piperazin-1-yl)prop-2-en-1-one], the 50% inhibitory concentration (IC50) on ErbB2 V777L is 50 to 100 nM; against EGFR WT it was below 50 nM.

On to `C=CC(=O)N1CCN(c2ccc3ncnc(Nc4ccc(Oc5ccc6c(c5)nnn6C)c(C)c4)c3n2)C[C@H]1C(C)C` [Compound 297, (R)-1-(2-isopropyl-4-(4-((3-methyl-4-((1-methyl-1H-benzo[d][1,2,3]triazol-5-yl)oxy)phenyl)amino)pyrido[3,2-d]pyrimidin-6-yl)piperazin-1-yl)prop-2-en-1-one], for which the half-maximal inhibitory concentration (IC50) against ErbB2 V777L fell in the range of 50 to 100 nM; at EGFR WT it was 100 to 500 nM.

For the compound `C=CC(=O)N1CCN(c2ncc3ncnc(Nc4ccc(Oc5ccc6c(c5)nnn6C)c(C)c4)c3n2)CC[C@@H]1C` [Compound 228, (S)-1-(7-methyl-4-(8-((3-methyl-4-((1-methyl-1H-benzo[d][1,2,3]triazol-5-yl)oxy)phenyl)amino)pyrimido[5,4-d]pyrimidin-2-yl)-1,4-diazepan-1-yl)prop-2-en-1-one], the IC50 on ErbB2 V777L lay within 100 to 500 nM; at EGFR WT, 500 to 1000 nM.

In the case of `C=CC(=O)N1CCCN(c2ccc3ncnc(Nc4ccc(Oc5ccc6c(c5)nnn6C)c(C)c4)c3n2)CC1` [Compound 308, 1-(4-(4-((3-methyl-4-((1-methyl-1H-benzo[d][1,2,3]triazol-5-yl)oxy)phenyl)amino)pyrido[3,2-d]pyrimidin-6-yl)-1,4-diazepan-1-yl)prop-2-en-1-one], the values for the concentration for half-maximal inhibition (IC50) at ErbB2 V777L and at EGFR WT were 100 to 500 nM and 500 to 1000 nM, respectively.

`C=C(F)C(=O)N1CCN(c2ccc3ncnc(Nc4ccc(Oc5ccc6c(c5)nnn6C)c(C)c4)c3n2)CC1` [Compound 245, 2-fluoro-1-(4-(4-((3-methyl-4-((1-methyl-1H-benzo[d][1,2,3]triazol-5-yl)oxy)phenyl)amino)pyrido[3,2-d]pyrimidin-6-yl)piperazin-1-yl)prop-2-en-1-one]: the IC50 was in the range of 100 to 500 nM against ErbB2 V777L and 500 to 1000 nM against EGFR WT.

Regarding `C=CC(=O)N1CCN(c2ncc3ncnc(Nc4ccc(Oc5ccc6c(c5)nnn6C)c(C)c4)c3c2F)CC1` [Compound 102, 1-(4-(5-fluoro-4-((3-methyl-4-((1-methyl-1H-benzo[d][1,2,3]triazol-5-yl)oxy)phenyl)amino)pyrido[3,4-d]pyrimidin-6-yl)piperazin-1-yl)prop-2-en-1-one], the half-maximal inhibitory concentration (IC50) on ErbB2 V777L was in the range of 100 to 500 nM; at EGFR WT it was 500 to 1000 nM.

Take `C=CC(=O)N1CCN(c2ncc3ncnc(Nc4ccc(Oc5ccn6nc(C)nc6c5)c(C)c4)c3n2)C[C@H]1C` [Compound 139]: the half-inhibitory concentration (IC50) on ErbB2 V777L and against EGFR WT was 100 to 500 nM in each case.

On to `C=CC(=O)N1CCN(c2ncc3ncnc(Nc4ccc(Oc5ccc6c(c5)nnn6C)c(C)c4)c3n2)C[C@H]1C1CC1` [Compound 196, (R)-1-(2-cyclopropyl-4-(8-((3-methyl-4-((1-methyl-1H-benzo[d][1,2,3]triazol-5-yl)oxy)phenyl)amino)pyrimido[5,4-d]pyrimidin-2-yl)piperazin-1-yl)prop-2-en-1-one], for which the IC50 against ErbB2 V777L is 100 to 500 nM; on EGFR WT, 500 to 1000 nM.

For the compound `Cc1cc(Nc2ncnc3cnc(N4CCN(C(=O)/C=C/CF)CC4)nc23)ccc1Oc1ccc2c(c1)nnn2C` [Compound 210, (E)-4-fluoro-1-(4-(8-((3-methyl-4-((1-methyl-1H-benzo[d][1,2,3]triazol-5-yl)oxy)phenyl)amino)pyrimido [5,4-d]pyrimidin-2-yl)piperazin-1-yl)but-2-en-1-one], the IC50 at ErbB2 V777L was 50 to 100 nM; against EGFR WT, 100 to 500 nM.

`C=CC(=O)N1CCN(c2ncc3ncnc(Nc4cc(C)c(Oc5ccc6c(c5)nnn6C)cc4OC)c3n2)CC1` [Compound 12, 1-(4-(8-((2-methoxy-5-methyl-4-((1-methyl-1H-benzo[d][1,2,3]triazol-5-yl)oxy)phenyl)amino)pyrimido[5,4-d]pyrimidin-2-yl)piperazin-1-yl)prop-2-en-1-one 2,2,2-trifluoroacetate]: the concentration for half-maximal inhibition (IC50) against ErbB2 V777L and against EGFR WT was 100 to 500 nM in each case.

Regarding `C=CC(=O)N1CCN(c2ccc3ncnc(Nc4ccc(Oc5ccc6c(c5)ncn6C(F)F)c(C)c4F)c3n2)C[C@H]1C` [Compound 253, (R)-1-(4-(4-((4-((1-(difluoromethyl)-1H-benzo[d]imidazol-5-yl)oxy)-2-fluoro-3-methylphenyl)amino)pyrido[3,2-d]pyrimidin-6-yl)-2-methylpiperazin-1-yl)prop-2-en-1-one], the half-inhibitory concentration (IC50) at ErbB2 V777L fell in the range of 50 to 100 nM; against EGFR WT, 100 to 500 nM.

Consider `C=CC(=O)NC1(C)CCN(c2ccc3ncnc(Nc4ccc(Oc5ccc6c(c5)nnn6C)c(C)c4F)c3n2)CC1` [Compound 273, N-(1-(4-((2-fluoro-3-methyl-4-((1-methyl-1H-benzo[d][1,2,3]triazol-5-yl)oxy)phenyl)amino)pyrido[3,2-d]pyrimidin-6-yl)-4-methylpiperidin-4-yl)acrylamide], for which the IC50 on ErbB2 V777L fell in the range of 100 to 500 nM; against EGFR WT it was 500 to 1000 nM.

Regarding `C=CC(=O)N1CCN(c2ncc3ncnc(Nc4ccc(Oc5cnc6c(c5)ncn6C(F)F)c(C)c4F)c3n2)C[C@H]1C` [Compound 177, (R)-1-(4-(8-((4-((3-(difluoromethyl)-3H-imidazo[4,5-b]pyridin-6-yl)oxy)-2-fluoro-3-methylphenyl)amino)pyrimido[5,4-d]pyrimidin-2-y1)-2-methylpiperazin-1-yl)prop-2-en-1-one], the concentration for half-maximal inhibition (IC50) was 100 to 500 nM at ErbB2 V777L and below 50 nM against EGFR WT.

For the compound `C=CC(=O)N1CCN(c2ncc3ncnc(Nc4ccc(Oc5ccc6c(c5)nnn6C)c(C)c4)c3n2)C[C@@H]1C` [Compound 2, (S)-1-(2-methyl-4-(8-((3-methyl-4-((1-methyl-1H-benzo[d][1,2,3]triazol-5-yl)oxy)phenyl)amino)pyrimido[5,4-d]pyrimidin-2-y1)piperazin-1-yl)prop-2-en-1-one], the IC50 against ErbB2 V777L lay within 50 to 100 nM; at EGFR WT it was 100 to 500 nM.

For `C=CC(=O)N1CCN(c2ncc3ncnc(Nc4ccc(Oc5ccc6c(c5)nnn6C)cc4F)c3n2)CC1` [Compound 22, 1-(4-(8-((2-fluoro-4-((1-methyl-1H-benzo[d][1,2,3]triazol-5-yl)oxy)phenyl)amino)pyrimido[5,4-d]pyrimidin-2-yl)piperazin-1-yl)prop-2-en-1-one], the IC50 at ErbB2 V777L and at EGFR WT was 100 to 500 nM throughout.
